In PMC7190983, “A Putative Efflux Transporter of the ABC Family, YbhFSR, in Escherichia coli Functions in Tetracycline Efflux and Na^+(Li^+)/H^+ Transport” (Frontiers in Microbiology, 2020):

What was measured:
YbhFSR [1] = molecular target: T1, YbhFSR (Escherichia coli, UniProt P0AFP9+P0AFQ2); assay: whole-cell ethidium fluorescence efflux, knockout and complemented strains; type: cell-based; set-up: gene ybhS; native transporter in whole cells; ybhF knockout, acrB ybhF double knockout and ybhF overexpression strains compared; YbhG and TolC probably also take part; details: 2.5 μM EB preloaded, 25 mM glucose, 50 mM KPi pH 7.0, 5 mM MgSO4, 37 °C
YbhFSR [2] = molecular target: T1, YbhFSR; set-up: gene ybhS; details: 100 μg/ml tetracycline, Mg2+ buffer pH 8.0

| Structure (SMILES) | whole-cell ethidium fluorescence efflux, knockout and complemented strains (YbhFSR [1]) | whole-cell tetracycline fluorescence efflux and accumulation, knockout strains (YbhFSR [2]) |
| --- | --- | --- |
| CC[n+]1c(-c2ccccc2)c2cc(N)ccc2c2ccc(N)cc21 [ethidium bromide] | the ybhF gene knockout reduced the ethidium efflux capacity |  |
| CN(C)[C@@H]1C(=O)C(C(N)=O)=C(O)[C@@]2(O)C(=O)C3=C(O)c4c(O)cccc4[C@@](C)(O)[C@H]3C[C@@H]12 [tetracycline] |  | knockout of ybhF decreased the efflux of tetracycline and increased the intracellular accumulation |
